Experimental data taken from patent US9539257B2, “Method of treating cancer” (NOVARTIS AG, priority 2009, dated 2017).
Where “and” joins values, the source holds several entries; their conditions need not be identical. Equal entries are not always repeated. Where two headings read alike, the source gives them in different places.

Legend:
HLA-DRB1*0701 = test system: HLA-DRB1*0701
Method: (§1) The two phenotypes that were evaluated were maximum on-treatment liver chemistry values for ALT and TBL with respect to the upper limit of normal. These phenotypes were evaluated in both case-control and quantitative trait analyses while key associations were examined qualitatively in the combined ALT/TBL cases. ALT and TBL cases were defined as maximum on-treatment elevations of ≧3×ULN and ≧1.5×ULN, respectively, and control subjects were defined as maximum on-treatment ALT or TBL of ≦1×ULN. […] Approximately 370 patients with an adequate, fully consented DNA sample had available clinical data for these phenotypes.
(§2) Germline DNA was extracted from peripheral blood (QiAmp DNA Blood Kit, Qiagen, Valencia, Calif.). This study evaluated candidate gene and genome-wide screening, performed in parallel, to detect case-control association signals in the exploratory cohort. Class I and II HLA genes (seven genes to 4-digit and three genes to 2-digit resolution) were typed by Laboratory Corporation of America (Burlington, N.C.) and Histogenetics (Ossining, N.Y.), or at GSK using the LABType® SSO Typing Test (One Lambda, Canoga Park, Calif.). […] Whole genome screen genotyping on the Illumina Human 1M-Duo platform was also conducted (Expression Analysis, Durham, N.C.).
(§3) For the exploratory study, initial analysis of the GWAS was done using logistic regression, carried out in PLINK (Purcell S, et al. American Journal of Human Genetics 2007; 81, 559-575) using the genotypic test option when three genotype classes were observed, or the additive test option when only two genotype classes were observed. […] In addition to the genotype term, all models included baseline ALT xULN, treatment group (for the exploratory study), and a sufficient number of principal components to account for potential confounding by population structure. Principal components were obtained from EIGENSOFT (Patterson N. et al. PLoS Genetics 2006; 2: e190), using study subjects and HapMap founders.
(§4) Genetic markers selected for confirmatory were required to achieve pre-defined p-value thresholds in the exploratory analysis of p≦0.05 for HLA markers, p≦0.01 for candidate gene markers and p≦10-4 for whole genome screen SNPs. For markers confirmed at p≦0.01, measures of potential clinical utility were evaluated. An allele or genotype(s) was designated which conferred a higher risk of ALT elevation and this was compared to the non-risk allele(s)/genotype(s) and the odds ratio (OR), positive predictive value (PPV), and negative predictive value (NPV) calculated.

HLA-DQA1*0201 = conditions: for HLA-DQA1*0201 Carrier: Non Cases (number) / HLA-DQA1*0201 Non-Carrier: Non Cases (number) / HLA-DQA1*0201 Carrier: Cases (number) / HLA-DQA1*0201 Non-Carrier: Cases (number) / NPV (CI) / OR (CI) / PPV (CI): confirmatory cohort; for NPV (CI) / OR (CI) / PPV (CI): HLA-DQA1*0201 carriage, cases vs non-cases
Method: as §1, §2, §3, §4

HLA-DQB1*0202 = test system: HLA-DQB1*0202
Method: as §1, §2, §3, §4

HLA-B*4403 = conditions: matched case-control
Method: The two phenotypes that were evaluated were maximum on-treatment liver chemistry values for ALT and TBL with respect to the upper limit of normal. These phenotypes were evaluated separately in case-control and quantitative trait analyses and jointly in a combined case-control analysis. ALT and TBL cases were defined as maximum on-treatment elevations of ≧3×ULN and ≧1.5×ULN, respectively, and control subjects were defined as maximum on-treatment ALT or TBL of ≦1×ULN. Approximately 950 patients with an adequate, fully consented DNA sample had available clinical data for these phenotypes. After subject genotyping quality control was completed, a total of 947 patients remained for pharmacogenetic analyses on at least one genetic variant.
Evaluation of HLA genes focused on a subset of the total number of patients consisting of all ALT cases (N=47) and matched controls (N=47).

TNXB rs12153855 = experiment: ALT case-control genetic association, exploratory study; format: in vivo, human; conditions: TNXB rs12153855 CC/CT
Description: as §2, §3, §4

DQA1*0201/DQB1*0201g = experiment: ALT case/non-case association with DQ2.2 serotype allele combinations, confirmatory study; format: in vivo, human
Method: as §4
HLA Class II peptides form heterodimer proteins where DQA1/DQB1 and DRA/DRB1 combinations create discrete antigen binding sites (Jones E Y, et al. Nature Reviews: Immunology 2006; 6; 271-282). HLA-DRA is functionally monomorphic and no further marker discrimination can be gained by evaluating specific allelic combinations. In contrast, both DQA1*0201 and DQB1*0202 are polymorphic.

[1] = DRB1*0701 carriage, ALT cases, Confirmatory study
[2] = DRB1*0701 carriage, ALT controls, Confirmatory study
[3] = restricted baseline (ALT and TBL <=1xULN at baseline)
[4] = unrestricted baseline (ALT and/or TBL >1xULN at baseline)
[5] = DQB1*0202 carriage, ALT cases, Confirmatory study
[6] = DQB1*0202 carriage, ALT controls, Confirmatory study
[7] = DQA1*0201/DQB1*0201g carriage, cases vs non-cases, ALT > 3 xULN, Confirmatory study
[8] = DQA1*0201/DQB1*0201g, ALT > 3 xULN threshold, Confirmatory study

SMILES: CS(=O)(=O)CCNCc1ccc(-c2ccc3ncnc(Nc4ccc(OCc5cccc(F)c5)c(Cl)c4)c3c2)o1 [lapatinib, N-(3 chloro-4-{[(3-fluorophenyl)methyl]oxy}phenyl)-6-[5-({[2 (methylsulfonyl)ethyl]amino}methyl)-2-furanyl]-4-quinazolinamine bis(4 methylbenzenesulfonate)monohydrate]
- Carriage: cases (%) (HLA-DRB1*0701; [1]): (67%)
- Carriage: cases (n/N) (HLA-DRB1*0701; [1]): 16/24
- Carriage: controls (%) (HLA-DRB1*0701; [2]): (23%)
- Carriage: controls (n/N) (HLA-DRB1*0701; [2]): 35/155
- combined ALT/TBL cases that were HLA-DRB1*0701 carriers (HLA-DRB1*0701; [3]): 6/6
- combined ALT/TBL cases that were HLA-DRB1*0701 carriers (HLA-DRB1*0701; [4]): 1/6
- HLA-DQA1*0201 Carrier: Non Cases (number) (HLA-DQA1*0201; ALT Cases > 3 xULN threshold): 82
- HLA-DQA1*0201 Non-Carrier: Non Cases (number) (HLA-DQA1*0201; ALT Cases > 3 xULN threshold): 268
- HLA-DQA1*0201 Carrier: Cases (number) (HLA-DQA1*0201; ALT Cases > 3 xULN): 17
- HLA-DQA1*0201 Non-Carrier: Cases (number) (HLA-DQA1*0201; ALT Cases > 3 xULN): 7
- HLA-DQA1*0201 Carrier: Non Cases (number) (HLA-DQA1*0201; ALT Cases > 5 xULN threshold): 90
- HLA-DQA1*0201 Non-Carrier: Non Cases (number) (HLA-DQA1*0201; ALT Cases > 5 xULN threshold): 272
- HLA-DQA1*0201 Carrier: Cases (number) (HLA-DQA1*0201; ALT Cases > 5 xULN): 9
- HLA-DQA1*0201 Non-Carrier: Cases (number) (HLA-DQA1*0201; ALT Cases > 5 xULN): 3
- HLA-DQA1*0201 Carrier: Non Cases (number) (HLA-DQA1*0201; ALT Cases > 8 xULN threshold): 93
- HLA-DQA1*0201 Non-Carrier: Non Cases (number) (HLA-DQA1*0201; ALT Cases > 8 xULN threshold): 274
- HLA-DQA1*0201 Carrier: Cases (number) (HLA-DQA1*0201; ALT Cases > 8 xULN): 6
- HLA-DQA1*0201 Non-Carrier: Cases (number) (HLA-DQA1*0201; ALT Cases > 8 xULN): 1
- % that carry DQA1*0201, Hepatocellular (HLA-DQA1*0201; Confirmatory Study ALT Cases): 83%
- % that carry DQA1*0201, Mixed (HLA-DQA1*0201; Confirmatory Study ALT Cases): 78%
- N that carry DQA1*0201, Cholestatic (HLA-DQA1*0201; Confirmatory Study ALT Cases): 0
- N that carry DQA1*0201, Hepatocellular (HLA-DQA1*0201; Confirmatory Study ALT Cases): 10
- N that carry DQA1*0201, Mixed (HLA-DQA1*0201; Confirmatory Study ALT Cases): 7
- Carriage: cases (n/N) (HLA-DQA1*0201; DQA1*0201 carriage, ALT cases (>3xULN), Confirmatory study, lapatinib plus letrozole): 17/24
- Carriage: controls (n/N) (HLA-DQA1*0201; DQA1*0201 carriage, ALT controls, Confirmatory study, lapatinib plus letrozole): 33/155
- PPV (HLA-DQA1*0201; Example 1A analysis: HLA-DQA1*0201, ALT cases vs all non-case subjects, 95% CI 0.11-0.27): 0.18
- NPV (HLA-DQA1*0201; Example 1A analysis: HLA-DQA1*0201, ALT cases vs all non-case subjects, 95% CI 0.95-0.99): 0.97
- NPV (CI) (HLA-DQA1*0201; ALT > 3 xULN): 0.97 (0.95, 0.99) and 0.975 (0.948, 0.990)
- OR (CI) (HLA-DQA1*0201; ALT > 3 xULN): 7.9 (3.0, 23.3)
- PPV (CI) (HLA-DQA1*0201; ALT > 3 xULN): 0.17 (0.10, 0.26)
- NPV (CI) (HLA-DQA1*0201; ALT > 5 xULN): 0.99 (0.97, 0.9977)
- OR (CI) (HLA-DQA1*0201; ALT > 5 xULN): 9.1 (2.2, 52.8)
- PPV (CI) (HLA-DQA1*0201; ALT > 5 xULN): 0.09 (0.04, 0.17)
- NPV (CI) (HLA-DQA1*0201; ALT > 8 xULN): 0.9964 (0.98, 0.9999)
- OR (CI) (HLA-DQA1*0201; ALT > 8 xULN): 17.7 (2.1, 816)
- PPV (CI) (HLA-DQA1*0201; ALT > 8 xULN): 0.06 (0.02, 0.13)
- DQA1*0201 alone carriage in non-cases (HLA-DQA1*0201; confirmatory study (82/350)): 23%
- cumulative incidence of ALT elevation, DQA1*0201 carriers compared with non-carriers (HLA-DQA1*0201; lapatinib plus letrozole treated patients, FIG. 3): higher
- reduction of the rate of ALT elevation on removal of DQA1*0201 carriers (HLA-DQA1*0201; lapatinib plus letrozole treated patients, confirmatory study): more than two-thirds
- hepatobiliary adverse event cases carrying the DQA1*0201 allele, number (HLA-DQA1*0201; of eleven cases that provided DNA): six
- combined ALT/TBL cases that were HLA-DQA1*0201 carriers (HLA-DQA1*0201; [3]): 6/6
- combined ALT/TBL cases that were HLA-DQA1*0201 carriers (HLA-DQA1*0201; [4]): 1/6
- Carriage: cases (%) (HLA-DQB1*0202; [5]): (63%)
- Carriage: cases (n/N) (HLA-DQB1*0202; [5]): 15/24
- Carriage: controls (%) (HLA-DQB1*0202; [6]): (19%)
- Carriage: controls (n/N) (HLA-DQB1*0202; [6]): 30/155
- combined ALT/TBL cases that carried HLA-DQB1*0202 (HLA-DQB1*0202; [3]): 5/6
- combined ALT/TBL cases that were HLA-DQB1*0202 carriers (HLA-DQB1*0202; [4]): 1/6
- ALT cases carrying one copy of HLA-B*4403 (HLA-B*4403; 47 cases): Twenty three
- ALT controls carrying one copy of HLA-B*4403 (HLA-B*4403; 47 controls): 6%
- Carriage: cases (%) (TNXB rs12153855; ALT cases): (35%)
- Carriage: cases (n/N) (TNXB rs12153855; ALT cases): 12/34
- Carriage: controls (%) (TNXB rs12153855; ALT controls): (17%)
- Carriage: controls (n/N) (TNXB rs12153855; ALT controls): 47/281
- HLA Carrier: Cases (number) (DQA1*0201/DQB1*0201g; DQA1*0201/DQB1*0201g (DQ2.2 serotype), ALT Cases > 3 xULN, Confirmatory study): 17
- NPV (CI) (DQA1*0201/DQB1*0201g; [7]): 0.976 (0.951, 0.990)
- OR (CI) (DQA1*0201/DQB1*0201g; [7]): 10.2 (3.8, 30.0)
- PPV (CI) (DQA1*0201/DQB1*0201g; [7]): 0.20 (0.12, 0.30)
- HLA Carrier: Non Cases (number) (DQA1*0201/DQB1*0201g; [8]): 67
- HLA Non-Carrier: Non Cases (number) (DQA1*0201/DQB1*0201g; [8]): 281
- HLA Non-Carrier: Cases (number) (DQA1*0201/DQB1*0201g; DQA1*0201/DQB1*0201g, ALT Cases > 3 xULN, Confirmatory study): 7
- DQA1*0201/DQB1*0201g allele combinations in ALT cases (DQA1*0201/DQB1*0201g; confirmatory study (17/24)): 71%
- DQA1*0201/DQB1*0201g allele combinations in non-cases (DQA1*0201/DQB1*0201g; confirmatory study (67/348)): 19%
